Test results from publication PMC3351444, “Molecular Evolution of a Peptide GPCR Ligand Driven by Artificial Neural Networks” (PLoS ONE, 2012).
Read-outs that look alike come from different tables or passages of the source. Square brackets hold non-standard residues; d marks the D form. Peptide text beside a SMILES is read from it.

Target: T1, human CMKLR1 (Homo sapiens, UniProt Q99788)
T1 construct: host or cells: HEK293A (Invitrogen), stably expressing human Gα15
T1 sequence (Q99788 1-373): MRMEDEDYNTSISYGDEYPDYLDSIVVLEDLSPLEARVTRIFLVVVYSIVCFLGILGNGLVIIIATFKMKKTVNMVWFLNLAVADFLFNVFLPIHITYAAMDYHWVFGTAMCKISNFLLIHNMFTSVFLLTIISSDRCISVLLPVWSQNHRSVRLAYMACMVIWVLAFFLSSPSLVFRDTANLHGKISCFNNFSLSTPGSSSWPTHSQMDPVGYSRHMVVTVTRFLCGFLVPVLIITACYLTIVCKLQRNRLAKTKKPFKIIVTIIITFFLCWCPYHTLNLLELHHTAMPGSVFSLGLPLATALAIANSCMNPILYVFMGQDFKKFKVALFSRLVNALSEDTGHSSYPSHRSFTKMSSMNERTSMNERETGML
Assay: Ca2+ mobilization (CellLux imaging) agonist assay in HEK293A cells expressing CMKLR1 and Gα15
Assay type: cell-based
Settings: for EC50: NR where no EC50 is given, read-out: EC50
Description: HEK293A cells (Invitrogen) expressing CMKLR1 and Gα15 were seeded at 5*10^4 cells/well in a poly-D-lysine coated 96-well black well/clear bottom plate (BD Falcon) and cultured overnight. From eighteen to twenty-four hours later, cells were loaded with FLUO4-AM (Invitrogen). Then the cells were washed two times with C1 solution (130 mM NaCl, 5 mM KCl, 10 mM HEPES pH 7.4, 2 mM CaCl2, and 10 mM Glucose). After the final wash, a 100 µL of residual volume remained on the cells. Peptides were dissolved in 10% DMSO to a concentration of 1 mM and were diluted in C1 solution with 0.1 % BSA. They were aliquoted as 2x solutions in 96-well plates and were simultaneously transferred by the robotic system within the imager from the ligand plate to the cell plate. […] Fluorescence data was generated in duplicate and experiments were repeated for at least three times. […] For the calculation of concentration-response curves, signals of two wells receiving the same concentration of test substances were averaged and the fluorescence changes of corresponding buffer C1 wells were subtracted. Signals were normalized to background fluorescence. For the calculation of EC50 values, plots of amplitude versus concentrations were prepared in SigmaPlot 11.

[1] = Ca2+ mobilization, CMKLR1, decimal comma

Row | max response [1] | EC50 [1] [µM] | Structure (SMILES) | max response
1 | 1,66 DF/F0 | – | CC(C)C[C@H](NC(=O)[C@@H](N)Cc1ccc(O)cc1)C(=O)N1CCC[C@H]1C(=O)NCC(=O)N[C@@H](CCC(N)=O)C(=O)N[C@@H](Cc1ccccc1)C(=O)N[C@H](Cc1ccccc1)C(=O)N[C@@H](Cc1ccccc1)C(=O)N[C@@H](CO)C(N)=O [compound 4] (H-YLPGQF[dF]FS-NH2; N-terminus assumed) | –
2 | 1,31 DF/F0 | 1.88 | C[C@H](NC(=O)[C@@H](Cc1ccccc1)NC(=O)[C@H](CCC(N)=O)NC(=O)CNC(=O)[C@@H]1CCCN1C(=O)[C@@H](Cc1ccc(O)cc1)NC(=O)[C@H](N)Cc1ccc(O)cc1)C(=O)N[C@H](Cc1ccc(O)cc1)C(=O)N[C@H](CO)C(N)=O [compound 8] (H-[dY][dY]PGQ[dF]A[dY][dS]-NH2; N-terminus assumed) | –
3 | 1,48 DF/F0 | 2.22 | CC[C@H](C)[C@H](NC(=O)CNC(=O)[C@@H]1CCCN1C(=O)[C@H](Cc1ccccc1)NC(=O)[C@@H](N)Cc1ccc(O)cc1)C(=O)N[C@@H](Cc1ccccc1)C(=O)N[C@@H](C)C(=O)N[C@H](Cc1ccccc1)C(=O)N[C@@H](CO)C(N)=O [compound 10] (H-YFPGIFA[dF]S-NH2; N-terminus assumed) | –
4 | 1,56 DF/F0 | 3.01 | NC(=O)CC[C@H](NC(=O)CNC(=O)[C@@H]1CCCN1C(=O)[C@H](Cc1ccccc1)NC(=O)[C@H](N)Cc1ccccc1)C(=O)N[C@@H](Cc1c[nH]c2ccccc12)C(=O)NCC(=O)N[C@@H](Cc1ccccc1)C(=O)N[C@@H](CO)C(N)=O [compound 12] (H-[dF]FPGQWGFS-NH2; N-terminus assumed) | –
5 | 1,22 DF/F0 | 3.2 | C[C@H](NC(=O)[C@@H](Cc1ccccc1)NC(=O)[C@H](CCC(N)=O)NC(=O)CNC(=O)[C@@H]1CCCN1C(=O)[C@H](Cc1ccccc1)NC(=O)[C@@H](N)Cc1ccc(O)cc1)C(=O)N[C@@H](Cc1c[nH]c2ccccc12)C(=O)N[C@@H](CO)C(N)=O [compound 13] (H-YFPGQ[dF]AWS-NH2; N-terminus assumed) | –
6 | 1,34 DF/F0 | 3.44 | C[C@H](NC(=O)[C@H](Cc1ccccc1)NC(=O)[C@H](CCC(N)=O)NC(=O)[C@H]1CCCN1C(=O)CNC(=O)[C@H](Cc1ccccc1)NC(=O)[C@@H](N)Cc1ccc(O)cc1)C(=O)N[C@@H](Cc1ccccc1)C(=O)N[C@@H](CO)C(N)=O [compound 14] (H-YFG[dP]QFAFS-NH2; N-terminus assumed) | –
7 | 1,47 DF/F0 | 3.47 | NC(=O)CC[C@H](NC(=O)CNC(=O)[C@@H]1CCCN1C(=O)[C@@H](Cc1ccccc1)NC(=O)[C@H](N)Cc1ccccc1)C(=O)N[C@@H](Cc1ccccc1)C(=O)NCC(=O)N[C@H](Cc1ccc(O)cc1)C(=O)N[C@H](CC(N)=O)C(N)=O [compound 15] (H-[dF][dF]PGQFG[dY][dN]-NH2; N-terminus assumed) | –
8 | 1,40 DF/F0 | 7.13 | CC[C@@H](C)[C@@H](NC(=O)[C@H](Cc1ccccc1)NC(=O)[C@H](CCC(N)=O)NC(=O)CNC(=O)[C@@H]1CCCN1C(=O)[C@H](Cc1ccccc1)NC(=O)[C@H](N)Cc1c[nH]c2ccccc12)C(=O)N[C@@H](Cc1ccccc1)C(=O)N[C@@H](CO)C(N)=O [compound 18] (H-[dW]FPGQF[dI]FS-NH2; N-terminus assumed) | –
9 | 0,42 DF/F0 | 9.55 | C[C@H](NC(=O)[C@H](Cc1ccc(O)cc1)NC(=O)[C@@H](CCC(N)=O)NC(=O)CNC(=O)[C@@H]1CCCN1C(=O)[C@@H](Cc1ccc(O)cc1)NC(=O)[C@@H](N)Cc1ccc(O)cc1)C(=O)N[C@@H](Cc1ccc(O)cc1)C(=O)N[C@@H](CO)C(N)=O [compound 19] (H-Y[dY]PG[dQ]YAYS-NH2; N-terminus assumed) | –
10 | 0,30 DF/F0 | 16.5 | C[C@H](N)C(=O)N[C@H](Cc1c[nH]c2ccccc12)C(=O)N1CCC[C@H]1C(=O)NCC(=O)N[C@@H](CCC(N)=O)C(=O)N[C@@H](Cc1ccccc1)C(=O)N[C@@H](C)C(=O)N[C@H](Cc1ccc(O)cc1)C(=O)N[C@@H](CO)C(N)=O [compound 21] (H-A[dW]PGQFA[dY]S-NH2; N-terminus assumed) | –
11 | 0,44 DF/F0 | 18.6 | C[C@H](NC(=O)[C@H](Cc1c[nH]c2ccccc12)NC(=O)[C@H](CCC(N)=O)NC(=O)CNC(=O)[C@@H]1CCCN1C(=O)[C@H](Cc1c[nH]c2ccccc12)NC(=O)[C@@H](N)Cc1ccc(O)cc1)C(=O)N[C@H](Cc1ccccc1)C(=O)N[C@@H](CS)C(N)=O [compound 22] (H-YWPGQWA[dF]C-NH2; N-terminus assumed) | –
12 | – | – | CC(C)C[C@H](NC(=O)[C@@H](N)Cc1ccc(O)cc1)C(=O)N1CCC[C@H]1C(=O)NCC(=O)N[C@@H](CCC(N)=O)C(=O)N[C@@H](Cc1ccccc1)C(=O)N[C@@H](C)C(=O)N[C@@H](Cc1ccccc1)C(=O)N[C@H](CO)C(=O)O [compound 33] | 0,51 DF/F0
13 | – | – | CSCC[C@H](NC(=O)[C@@H](N)Cc1ccc(O)cc1)C(=O)N1CCC[C@H]1C(=O)NCC(=O)N[C@@H](CCC(N)=O)C(=O)N[C@@H](Cc1ccccc1)C(=O)N[C@@H](C)C(=O)N[C@@H](Cc1ccccc1)C(=O)N[C@H](CO)C(=O)O [compound 40] (H-YMPGQFAF[dS]-OH; N-terminus assumed) | 0,74 DF/F0
14 | 1,13 DF/F0 | – | CC(C)C[C@H](NC(=O)[C@H](N)Cc1ccc(O)cc1)C(=O)N1CCC[C@H]1C(=O)NCC(=O)N[C@@H](CCC(N)=O)C(=O)N[C@@H](Cc1ccc(O)cc1)C(=O)N[C@@H](C)C(=O)N[C@@H](Cc1ccccc1)C(=O)N[C@@H](Cc1ccccc1)C(=O)O [compound 43] (H-[dY]LPGQYAFF-OH; N-terminus assumed) | –
15 | 1,73 DF/F0 | – | CC(C)C[C@H](NC(=O)[C@@H](N)Cc1ccc(O)cc1)C(=O)N1CCC[C@H]1C(=O)NCC(=O)N[C@@H](CCC(N)=O)C(=O)N[C@@H](Cc1ccc(O)cc1)C(=O)N[C@@H](C)C(=O)N[C@@H](Cc1ccccc1)C(=O)N[C@H](CO)C(=O)O [compound 81] (H-YLPGQYAF[dS]-OH; N-terminus assumed) | –
16 | 1,72 DF/F0 | 0.1 | C[C@H](NC(=O)[C@H](Cc1ccccc1)NC(=O)[C@H](CCC(N)=O)NC(=O)CNC(=O)[C@H]1CCCN1C(=O)CNC(=O)[C@@H]1CCCN1)C(=O)N[C@@H](Cc1ccccc1)C(=O)N[C@H](CO)C(=O)O [compound 97] (H-PG[dP]GQFAF[dS]-OH; N-terminus assumed) | –
17 | – | – | CC(C)C[C@@H](NC(=O)[C@H](N)Cc1ccc(O)cc1)C(=O)N1CCC[C@H]1C(=O)NCC(=O)N[C@@H](CCC(N)=O)C(=O)N[C@@H](Cc1ccccc1)C(=O)N[C@@H](C)C(=O)N[C@@H](Cc1ccccc1)C(=O)N[C@H](CO)C(=O)O [compound 98] | 1,68 DF/F0
18 | 1,76 DF/F0 | 0.194 | C[C@H](NC(=O)[C@H](CO)NC(=O)[C@H](Cc1ccccc1)NC(=O)[C@H](C)NC(=O)[C@H](Cc1ccccc1)NC(=O)[C@H](CCC(N)=O)NC(=O)[C@@H](N)Cc1ccccc1)C(=O)N[C@@H](Cc1ccccc1)C(=O)N[C@H](CO)C(=O)O [compound 103] (H-FQFAFSAF[dS]-OH; N-terminus assumed) | –
19 | 1,81 DF/F0 | 0.611 | C[C@H](NC(=O)[C@H](Cc1ccccc1)NC(=O)[C@H](CCC(N)=O)NC(=O)CNC(=O)[C@@H]1CCCN1C(=O)[C@@H](N)Cc1ccccc1)C(=O)N[C@@H](Cc1ccccc1)C(=O)N[C@H](CO)C(=O)N[C@H](CO)C(=O)O [compound 105] (H-FPGQFAF[dS][dS]-OH; N-terminus assumed) | –
20 | 1,61 DF/F0 | 1.21 | CC(C)C[C@H](NC(=O)CNC(=O)[C@H](Cc1ccc(O)cc1)NC(=O)[C@H](CC(C)C)NC(=O)[C@H](N)Cc1ccccc1)C(=O)N[C@@H](Cc1ccc(O)cc1)C(=O)N[C@@H](C)C(=O)N[C@@H](Cc1ccccc1)C(=O)N1CCC[C@@H]1C(=O)O [compound 108] (H-[dF]LYGLYAF[dP]-OH; N-terminus assumed) | –
21 | 1,59 DF/F0 | 1.77 | CC(C)C[C@H](NC(=O)[C@@H](N)Cc1ccccc1)C(=O)N1CCC[C@H]1C(=O)NCC(=O)N[C@@H](CCC(N)=O)C(=O)N[C@@H](Cc1ccccc1)C(=O)N[C@@H](C)C(=O)N[C@@H](Cc1ccccc1)C(=O)N1CCC[C@@H]1C(=O)O [compound 110] (H-FLPGQFAF[dP]-OH; N-terminus assumed) | –
22 | – | – | C[C@H](NC(=O)[C@H](Cc1ccccc1)NC(=O)[C@H](CCC(N)=O)NC(=O)CNC(=O)[C@@H]1CCCN1C(=O)[C@H](CC(=O)O)NC(=O)[C@H](N)Cc1ccc(O)cc1)C(=O)N[C@@H](Cc1ccccc1)C(=O)N[C@H](CO)C(=O)O [compound 112] (H-[dY]DPGQFAF[dS]-OH; N-terminus assumed) | 1,12 DF/F0
